Measured values as given in patent US20110237500A1, “CECROPIN-MAGAININ HYBRID PEPTIDES” (priority 2008, published 2011).

Columns and labels:
Format in all cases: cell-based
B. thailandensis E264 = tested on: B. thailandensis E264; parameters: key: —: No effect (i.e. no significant difference between control [culture with no peptide] and culture with peptide); *: ~1 log effect (i.e. culture with peptide that's growth was ~1 log less than control); **: 1-2 log effect; ***: 2-4 log effect; ****: >4 log effect; “”: “Immediate effect” (i.e. loss of growth by at least 1 log compared to control immediately on addition of peptide [T = 0])
F. novicida U112 = tested on: F. novicida U112; parameters: key: —: No effect (i.e. no significant difference between control [culture with no peptide] and culture with peptide); *: ~1 log effect (i.e. culture with peptide that's growth was ~1 log less than control); **: 1-2 log effect; ***: 2-4 log effect; ****: >4 log effect; “”: “Immediate effect” (i.e. loss of growth by at least 1 log compared to control immediately on addition of peptide [T = 0])
[1] = tested on: Y. pseudotuberculosis IP32593; parameters: key: —: No effect (i.e. no significant difference between control [culture with no peptide] and culture with peptide); *: ~1 log effect (i.e. culture with peptide that's growth was ~1 log less than control); **: 1-2 log effect; ***: 2-4 log effect; ****: >4 log effect; “”: “Immediate effect” (i.e. loss of growth by at least 1 log compared to control immediately on addition of peptide [T = 0])
S. aureus ATCC29213 = assay: Viable count (CFU/ml) time-kill assay of peptides with bacteria; details: 102 μg/ml peptide, 37° C., growth versus PBS control
F. tularensis LVS = tested on: F. tularensis LVS; parameters: key: —: No effect (i.e. no significant difference between control [culture with no peptide] and culture with peptide); *: ~1 log effect (i.e. culture with peptide that's growth was ~1 log less than control); **: 1-2 log effect; ***: 2-4 log effect; ****: >4 log effect; “”: “Immediate effect” (i.e. loss of growth by at least 1 log compared to control immediately on addition of peptide [T = 0])

Sequence: GIGKFLHSAKKFGKAFVGEIMNS [Magainin II]
- Effect of peptides after 4 hours incubation with bacteria: B. thailandensis E264 (B. thailandensis E264): —
- Effect of peptides after 4 hours incubation with bacteria: F. novicida U112 (F. novicida U112): —
- Effect of peptides after 4 hours incubation with bacteria: Y. pseudotuberculosis IP32593 [1]: —
- Effect of peptides after 4 hours incubation with bacteria: S. aureus ATCC29213 (S. aureus ATCC29213): **** (>4 log effect)
- Effect of peptides after 4 hours incubation with bacteria: F. tularensis LVS (F. tularensis LVS): —
